The subject of experiment [1] is nausea induced by copper sulfate. Nature of the experiment: Antiemetic activity: nausea/vomiting induced by copper sulfate in ferrets. The class given is in vivo. The conditions noted are these: ferret; for Number of episodes of nausea/vomiting: copper sulfate 100 mg/kg intragastric, 30 min observation. As for the experimental part:
(§1) The compounds obtained in the invention are studied with regard to their effects on nausea in ferrets according to a method described by Costall et al. (Neuropharmacology, 1986, 25, 959-961). Ferrets of both sexes (0.7-1.4 kg) are individually housed at 21±1° C. and fed normally. The compound of the example or a vehicle is subsequently administered to them subcutaneously as pretreatment 15 minutes before the administration of copper sulfate (CuSO4.5H2O; 100 mg/kg by the intragastric route) or cisplatin (10 mg/kg i.v. by means of a permanent jugular cannula). The animals are observed at the beginning of vomiting and then for 30 minutes (copper sulfate) or 240 minutes (cisplatin). Vomiting is characterized by rhythmic abdominal contractions, either associated with the expulsion of solid or liquid matter (vomit) or not associated with the passage of matter via the mouth (nausea). The number of episodes and nausea or vomiting are recorded.

In experiment [2] the test system is nausea induced by cisplatin. Nature of the experiment: Antiemetic activity: nausea/vomiting induced by cisplatin in ferrets. The class given is in vivo. The settings on record: ferret; for Number of episodes of nausea/vomiting: cisplatin 10 mg/kg i.v., 240 min observation. As for the experimental part:
as §1

For experiment [3], the system named is nausea caused by the movement (travel sickness). Put plainly: Travel sickness in the shrew (Suncus murinus). The format is in vivo. The settings on record: for Number of episodes of nausea/vomiting: motion 1 hertz 4 cm for 20 min. From the text:
The compound of Example 3 is studied with regard to its effect on travel sickness, (vertigo) induced in, Suncus murinus according to the method described by N. Matsuki et al. (“Mechanisms and Control of Emesis”, John Libbey Emotex, 1992, 233, 323-329). Males of the species Suncus murinus weighing 58-72 grams are housed in groups of 3 and are allowed free access to solid food and to water. One hour before the test, they are presented with cat food in their housing cage. At the beginning of the test, the animals receive the treatment with the test product by the i.p. route. After 30 minutes, they are placed individually in the test boxes (15×15×10 cm). The boxes are connected to a motor which displaces them over several wheels forward and backward with a frequency which induces nausea in them (travel sickness). This frequency is 1 hertz with an amplitude of displacement of 4 cm. The animals are left in the test boxes for 30 minutes, in order for them to become used to their surroundings, and then the active movement of the cages is begun for 20 minutes, in order to determine the presence or the absence of nausea (without passage of matter from the digestive tract) and of vomiting (with passage of matter from the digestive tract).

Another experiment concerns the target T1, 5HT1A serotonin receptor (Rattus norvegicus, UniProt P19327).
T1 construct: A rat hippocampus homogenate is used; from tissue; host or cells: rat hippocampus homogenate
T1 sequence (P19327 1-422): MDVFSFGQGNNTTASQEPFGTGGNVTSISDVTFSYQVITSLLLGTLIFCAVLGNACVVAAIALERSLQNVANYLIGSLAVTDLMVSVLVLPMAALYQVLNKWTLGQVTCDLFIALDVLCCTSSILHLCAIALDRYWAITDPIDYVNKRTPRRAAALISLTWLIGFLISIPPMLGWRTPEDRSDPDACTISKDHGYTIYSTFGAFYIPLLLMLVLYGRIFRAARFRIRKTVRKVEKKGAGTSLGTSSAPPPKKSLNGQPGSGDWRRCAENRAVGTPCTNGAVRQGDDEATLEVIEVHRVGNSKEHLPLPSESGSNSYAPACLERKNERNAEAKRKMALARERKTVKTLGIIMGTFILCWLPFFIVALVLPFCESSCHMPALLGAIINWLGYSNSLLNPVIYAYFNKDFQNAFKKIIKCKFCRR
Nature of the experiment: Binding to the 5HT1A serotonin receptor (rat hippocampus homogenate, [3H]-8-HO-DPAT). The conditions noted are these: 15 minutes at 37° C., read-out: Ki (inhibition constant). As for the experimental part: A rat hippocampus homogenate is used, a modification of the method of S. J. Peroutka (Neurochem., 1986, 47, 529) being followed. [^3H]-8-HO-DPAT is used as radioligand and serotonin is used to measure the nonspecific binding. The incubation time is 15 minutes at a temperature of 37° C. The radioligand bonded to the protein is separated by filtration through glass fiber filters and the radioactivity retained on the filter is determined by liquid scintillation. The inhibitIon constant (Ki, nM) is calculated by nonlinear regression analysis using the EBDA/LIGAND program (Munson and Rodbard, Analytical Biochemistry, 1980, 107, 220).

In experiment [4] the test system is conditioned avoidance response. Put plainly: Test of conditioned avoidance response (C.A.R.). The class given is in vivo. The settings on record: Rattus norvegicus, po; male Wistar rats, p.o., 45 minutes before the study; read-out: ED50 (suppression of conditioned avoidance response). As for the experimental part: In this test, use is made of male Wistar rats weighing 200 g trained to leap a barrier in a Letica shuttle box (references LI 910 and LI 2700) during the 30 seconds which follow their introduction into the box. Products having an anxiolytic or tranquilizing activity suppress the conditioned avoidance response. Training: first day, 11 tests at intervals of 3 minutes. Electric shock in the paws at 30 seconds (5 mA, 0.1 s, 10 s). Second and third days: two daily tests, only with the selected rats {some of the grades of the first day (except the first test) >14}. Day of the test: groups formed by the selected rats. Oral administration of the product or vehicle 45 minutes before the beginning of the study.

The next experiment relates to gastric acid secretion. Nature of the experiment: Inhibitory activity with regard to gastric acid secretion (Shay procedure). The conditions noted are these: Rattus norvegicus, intraduodenal; male Wistar rats, pylorus ligation, i.d., 2 hours; read-out: ED50 (inhibition of gastric acid secretion). The format is in vivo. As for the experimental part: This activity is determined by means of the Shay procedure (H. Shay et al., Gastroenterology, 1945, 5, 43; Visscher et al., J. Pharmac. Exp. Ther., 1954, 110, 188).
Male Wistar rats weighing from 200 to 250 g are used in this test, which rats are deprived of food up to the day preceding the test, with free access to water. Batches of 4 animals each are used, at least.
The rats are anesthetized with ethyl ether, a laparotomy is performed on them and their pylori are tied, and then an abdominal incision is made. The products are administered intraduodenally (i.d.) before suturing the abdominal incision. The dose administered in the first test is 40 mg/kg and then the median effective dose (ED50) is determined. The vehicle used is gum arabic at 5% w/v in doubly-distilled water.
Two hours after ligating the pylori, the rats are sacrificed by prolonged anesthesia with ethyl ether and the volume of gastric juice is measured. The total acidity is determined by means of a pH meter equipped with an automatic burette. For each product and for each dose tested, the percentage of inhibition of gastric acid secretion is determined with respect to a reference batch.

The term Ki denotes a measure of affinity in units of concentration, obtained from inhibition or displacement. The term ED50 denotes the midpoint of the dose-response relation. On to `Cc1nc(Cl)c(Cl)n1CCCCN1CCN(c2ncc(F)cn2)CC1.O=C(O)CC(O)(CC(=O)O)C(=O)O` [Example 3, 2-{4-[4-(4,5-dichloro-2-methylimidazol-1-yl)butyl]piperazin-1-yl}-5-fluoropyrimidine citrate], for which the “Number of episodes of nausea/vomiting” value in experiment [1] (0.001 mg/kg s.c.) is listed as 7.4 ± 1.2 (NS); in experiment [1] (0.01 mg/kg s.c.), 3.2 ± 0.6 (*); in experiment [1] (0.1 mg/kg s.c.), 1.0 ± 0.2 (*); in experiment [1] (1 mg/kg s.c.), 1.7 ± 0.3 (*); in experiment [2] (0.001 mg/kg s.c.) it was 13.8 ± 2.4 (NS); in experiment [2] (0.01 mg/kg s.c.) it was 6.5 ± 3.1 (*). Besides, the “Number of episodes of nausea/vomiting” value in experiment [2] (0.1 mg/kg s.c.) is 3.1 ± 2.9 (*); in experiment [2] (1 mg/kg s.c.) it was 3.0 ± 2.0 (*); in experiment [3] (0.001 mg/kg i.p.), 8.38 ± 1.41 (NS); in experiment [3] (0.01 mg/kg i.p.) it was 0.33 ± 0.21 (*); in experiment [3] (0.1 mg/kg i.p.), 2.17 ± 0.83 (*); in experiment [3] (1.0 mg/kg i.p.) it was 0.33 ± 0.21 (*). In addition, the “Number of episodes of nausea/vomiting” value in experiment [3] (10.0 mg/kg i.p.) is given as 0 ± 0 (*). Further, the “Effect on nausea induced by copper sulfate (in words)” value in experiment [1] (s.c.) is “capable of altering the nausea induced by copper sulfate”. Moreover, the “Effect on nausea induced by cisplatin (in words)” value in experiment [2] (s.c.) is listed as “opposing the nausea induced by cisplatin”. Besides, the “Effect on nausea caused by the movement (travel sickness) (in words)” value in experiment [3] (doses of 0.01 to 10 mg/kg i.p.) is on record as “markedly inhibits the nausea caused by the movement (travel sickness)”. Also, the Ki on 5HT1A serotonin receptor was found to be 19.4 nM. The ED50 in experiment [4] was 9.7 mg/kg; in the experiment on gastric acid secretion, 1.9 mg/kg.

These data come from patent US6346620B1, “Methods for preparation of 2-(4-(4-(4,5-dichloro-2-methylimidazol-1-yl)butyl)-1-piperazinyl)-5-fluoropyrimidine and salts thereof” (Laboratories del Dr. Esteve S.A., priority 1997, dated 2002).
